Experimental findings from patent publication US11352391B2, “Compositions for inducing urinary voiding and defecation” (Dignify Therapeutics, LLC, priority 2017, dated 2022) are described below.

The nature of data set [1]: Saline solubility of heptapeptides. The format is physicochemical. The protocol:
Heptapeptides A-K shown below in Table 1 (SEQ ID NOs: 1-11) were synthesized according to standard Fmoc-mediated solid-phase techniques and purified under typical C18 reverse-phase conditions.
Compounds D-K were considered to be insoluble in saline (<1 mg/mL).

Data set [2] deals with T1, human NK2 Receptor (hNK2R) (Homo sapiens, UniProt P21452).
T1 sequence (P21452 1-398): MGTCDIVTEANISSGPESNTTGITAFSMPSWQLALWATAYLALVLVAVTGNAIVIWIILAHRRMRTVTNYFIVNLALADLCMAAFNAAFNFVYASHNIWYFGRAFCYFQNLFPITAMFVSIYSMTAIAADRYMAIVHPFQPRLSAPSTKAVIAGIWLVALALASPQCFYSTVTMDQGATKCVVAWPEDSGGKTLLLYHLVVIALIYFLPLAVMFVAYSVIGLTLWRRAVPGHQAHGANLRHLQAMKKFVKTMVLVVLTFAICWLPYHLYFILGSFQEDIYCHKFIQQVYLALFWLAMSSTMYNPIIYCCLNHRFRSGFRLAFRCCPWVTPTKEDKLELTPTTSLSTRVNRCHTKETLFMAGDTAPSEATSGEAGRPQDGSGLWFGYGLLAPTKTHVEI
In words: [125I]-NKA radioligand competition binding to human recombinant NK2Rs (CHO-hNK2 membranes). The settings on record: for hNK2 selectivity ratio: ratio of Kis hNK1R/hNK2R. The protocol: (§1) After removal of the supernatant the cell pellet was washed and collected by re-suspension in PBS and centrifugation.
(§2) Frozen pellets were thawed and homogenized in 10 volumes (w/v) of membrane preparation buffer (50 mM HEPES pH 7.4, 1 mM EDTA, 50 μg/mL bacitracin and protease inhibitors) using a Polytron Ultraturrax (twice for 15 s per cycle). […] Protein concentration was determined using BioRad Protein Assay (Milan, Italy) with a BSA standard curve.
In general terms: Displacement assays read how much labelled ligand stays bound in the presence of the test substance.

In data set [3] the target is human NK1 Receptor (hNK1R) (Homo sapiens, UniProt P25103). The experiment in a line: [3H]-septide radioligand competition binding to human recombinant NK1Rs (CHO-hNK1 membranes). The protocol:
as §1, §2

In data set [4] the target is T2, recombinant hNK2R expressed in CHO cells (Homo sapiens, UniProt P21452).
T2 sequence (P21452 1-398): T1 sequence (P21452 1-398)
In words: Intracellular calcium mobilization (FLIPR) in CHO-hNK2 cells. The settings on record: for hNK2 selectivity ratio: ratio of EC50s hNK1R/hNK2R. The class given is cell-based. The protocol:
(§3) CHO-hNK1 and CHO-hNK2 cells were seeded into black walled clear-bottom 384-well plates) at a density of 10,000 and 15,000 cells per well in 50 μL culture media, respectively, and grown overnight at 37° C. in a humidified CO2-incubator. Cells were washed in washing buffer using the EMBLA 384 instrument, leaving 20 μL of buffer per well after the final aspiration. Cells were then incubated at 37° C. with the cytoplasmic Ca2+ indicator Fluo-4 AM (final concentration 1 μM) in assay buffer (20 mM HEPES, 145 mM NaCl, 5 mM KCl, 5.5 mM glucose, 1 mM MgCl2 and 2 mM CaCl2, pH 7.4, 0.05% Pluronic F-127 and 0.1% BSA) containing 2.5 mM probenecid for […] (cell loading). Cells were then washed 3 times in washing buffer (20 mM HEPES, 145 mM NaCl, 5 mM KCl, 5.5 mM glucose, 1 mM MgCl2 and 2 mM CaCl2, pH 7.4 and 2.5 mM probenecid) using the EMBLA 384 instrument, leaving 30 μL of buffer in each well after the last wash. Loaded cell plates were transferred to the FLIPR machine and calcium responses were monitored as described below. A dual read-out FLIPR protocol was used, allowing for characterization of both agonist and antagonist profiles. For quality control, in each compound plate the signal was monitored by evaluating the responses to the reference standards (NKA and Substance P).
(§4) Concentration response curves of compounds were run in duplicate on two different occasions from the same stock solutions. Test solutions were prepared from 10 mM stock solutions in DMSO and 1 μL of each solution was stamped into V-bottom assay plates containing 49 μL assay buffer. The final concentration of DMSO was 0.5% in each well.
Background: Calcium flux is commonly read through the fluorescence of an indicator in the cells.

The target in data set [5] is recombinant hNK1R expressed in CHO cells (Homo sapiens, UniProt P25103). In words: Intracellular calcium mobilization (FLIPR) in CHO-hNK1 cells. The format is cell-based. The method, then: as §3, §4
Chain of recombinant hNK1R expressed in CHO cells (P25103 whole entry): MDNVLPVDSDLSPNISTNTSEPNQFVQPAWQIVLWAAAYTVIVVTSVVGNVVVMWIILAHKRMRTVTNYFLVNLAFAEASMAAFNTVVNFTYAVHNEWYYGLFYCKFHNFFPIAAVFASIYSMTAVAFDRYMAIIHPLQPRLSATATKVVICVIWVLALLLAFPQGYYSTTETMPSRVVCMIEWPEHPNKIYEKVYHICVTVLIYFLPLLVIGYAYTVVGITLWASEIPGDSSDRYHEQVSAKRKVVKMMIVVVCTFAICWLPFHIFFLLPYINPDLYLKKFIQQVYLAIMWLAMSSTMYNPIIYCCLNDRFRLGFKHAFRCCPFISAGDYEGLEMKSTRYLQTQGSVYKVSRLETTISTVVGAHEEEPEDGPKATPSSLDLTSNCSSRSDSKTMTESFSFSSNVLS
Data set [6] in a line: Pharmacokinetics in rat plasma after cassette IV bolus dosing. As to conditions: Sprague-Dawley, in vivo. The method, then: The concentrations of compounds (SEQ ID NOS: 1-11) were measured in rat plasma after intravenous (IV) bolus dosing to determine pharmacokinetic profiles of individual compounds.
Animal preparation: In vivo studies were performed in anesthetized adult Sprague Dawley rats. Rats were anesthetized with urethane (1.2-1.4 g/kg subcutaneous injection). Surgical procedures were then performed with the addition of isoflurane anesthesia (0.05-1.5% in 02) as needed. A venous cannula was inserted into the jugular vein for intravenous (IV) administration of compounds.
In vivo dosing and plasma sampling: Compounds were divided into two groups (soluble and insoluble). Each group was dosed as a cassette in which four compounds (100 μg/kg each compound) were combined into a single IV bolus injection to anesthetized adult Sprague-Dawley rats. Soluble compounds were dissolved in saline. Insoluble compounds were dissolved in a 10% ethanol/saline solution. Rats were cassette dosed based on weight using 0.1 mg/mL solutions of individual compounds. Blood samples (700 μL) were collected using a carotid artery cannula into EDTA tubes containing ascorbic acid (final concentration 1%), and plasma was isolated.
Bioanalytical assay: A reversed-phase HPLC with Turbo Ion Spray MS/MS detection method was developed for bioanalysis. Mass spec transition and settings were individually optimized for each compound and then compounds were cassetted for HPLC method development and optimization. [^13C9; ^15N] [Lys5,MeLeu9,Nle10]-NKA(4-10) was used as an internal standard (IS). Analyte-to-IS peak area ratios for individual compounds were used to create linear calibration curves (1-20 ng/mL) using 1/×2 weighted least-squares regression analysis for evaluation of method linearity, precision and accuracy. For plasma concentration measurements, plasma samples were spiked with IS, processed by extraction, and analyzed using LC-MS/MS. Positive (M+H)+ ions for individual compounds and IS were monitored in MRM mode.

Setting [7] is: displacement of 0.1 nM [125I]-NKA, CHO-hNK2 membranes, read-out: hNK2 binding Ki.
[8] abbreviates: displacement of 5.0 nM [3H]-septide, CHO-hNK1 membranes, read-out: hNK1 binding Ki.
Setting [9] is: calcium mobilization, CHO-hNK2 cells, read-out: hNK2 EC50.
Where [10] appears, read: calcium mobilization, CHO-hNK1 cells, read-out: hNK1 EC50.

Read-outs that look alike come from different tables or passages of the source. Where a SMILES comes first, the peptide text is derived from it. Where no end group is shown, it is not given here.

For orientation: solubility means how much of the substance goes into solution per volume. Lower therefore signals little dissolved substance. The term Ki denotes the dissociation constant of the complex between target and ligand, obtained from inhibition or displacement. Usually EC50 stands for the concentration needed to bring the measured effect to its halfway point.

Chain of human NK1 Receptor (hNK1R) (P25103 whole entry): as above

`CSCC[C@H](NC(=O)[C@H](CC(C)C)N(C)C(=O)CNC(=O)[C@@H](NC(=O)[C@H](Cc1ccccc1)NC(=O)[C@H](CCCCN)NC(=O)[C@@H](N)CC(=O)O)C(C)C)C(N)=O` [A, Asp-Lys-Phe-Val-Gly-(NMe-Leu)-Met-NH2] returned a solubility in data set [1] greater than 20000 µg/mL. Moreover, the Ki in data set [2] amounted to 0.2 nM; in data set [3], 50.1 nM. In addition, the hNK2 selectivity ratio in data set [2] stood at 248.89; in data set [4], 7. Also, the results for the EC50 in data set [4] and in data set [5] were 0.14 nM and 0.95 nM, respectively. In addition, the level at 10 min in data set [6] (100 ug/kg, cassette IV bolus 100 μg/kg, by 10 min post-dose, read-out: plasma concentration) was less than 1 ng/mL. In data set [6] (cassette IV bolus, 100 μg/kg each compound, read-out: plasma t1/2), the half-life lay in the range of 0.2 to 1.2 min.
`CSCC[C@H](NC(=O)[C@H](CC(C)C)N(C)C(=O)CNC(=O)[C@@H](NC(=O)[C@H](Cc1ccccc1)NC(=O)[C@H](CCCNC(=N)N)NC(=O)[C@@H](N)CC(=O)O)C(C)C)C(N)=O` [C, Asp-Arg-Phe-Val-Gly-(NMe-Leu)-Met-NH2] (HELM PEPTIDE1{D.R.F.V.G.[meL].M.[am]}$$$$V2.0; N-terminus assumed) registered a solubility in data set [1] greater than 20000 µg/mL. For the same compound, the inhibitory constant (Ki) in data set [2] (setting [7]) was 0.12 nM; in data set [3] (setting [8]), 20.9 nM. Also, the hNK2 selectivity ratio in data set [2] was 167.49; in data set [4], 2. Also, the EC50 came to 0.16 nM in data set [4] (setting [9]) and 0.3 nM in data set [5] (setting [10]).
`CSCC[C@H](NC(=O)[C@H](CC(C)C)NC(=O)CNC(=O)[C@@H](NC(=O)[C@H](Cc1ccccc1)NC(=O)[C@H](CCCCN)NC(=O)[C@@H](N)CC(=O)O)C(C)C)C(N)=O` [D, Asp-Lys-Phe-Val-Gly-Leu-Met-NH2]: the solubility in data set [1] is less than 1000 µg/mL. For the same compound, the EC50 in data set [4] (setting [9]) worked out at 0.09 nM; in data set [5] (setting [10]) it was 0.41 nM.
The compound `CCCC[C@H](NC(=O)[C@H](CC(C)C)NC(=O)CNC(=O)[C@@H](NC(=O)[C@H](Cc1ccccc1)NC(=O)[C@H](CCCCN)NC(=O)[C@@H](N)CC(=O)O)C(C)C)C(N)=O` [F, Asp-Lys-Phe-Val-Gly-Leu-Nle-NH2] displayed a solubility in data set [1] of less than 1000 µg/mL. In addition, the figures for the Ki in data set [2] and in data set [3] were 2.75 nM and 224 nM, respectively. Further, the hNK2 selectivity ratio came to 81.47 in data set [2] and 6 in data set [4]. Moreover, the concentration giving a half-maximal response (EC50) in data set [4] (setting [9]) is 0.38 nM; in data set [5] (setting [10]), 2.36 nM.
`CSCC[C@H](NC(=O)[C@H](CC(C)C)NC(=O)CCNC(=O)[C@@H](NC(=O)[C@H](Cc1ccccc1)NC(=O)[C@H](CCCNC(=N)N)NC(=O)[C@@H](N)CC(=O)O)C(C)C)C(N)=O` [I, Asp-Arg-Phe-Val-(β-Ala)-Leu-Met-NH2] (HELM PEPTIDE1{D.R.F.V.[bAla].L.M.[am]}$$$$V2.0; N-terminus assumed) showed a solubility in data set [1] of less than 1000 µg/mL. In addition, the Ki stood at 0.88 nM in data set [2] (setting [7]) and 95.5 nM in data set [3] (setting [8]). Also, the hNK2 selectivity ratio is on record as 108.27 in data set [2] and 12 in data set [4]. Further, the 50% effective concentration (EC50) amounted to 0.15 nM in data set [4] (setting [9]) and 1.83 nM in data set [5] (setting [10]).
`CCCC[C@H](NC(=O)[C@H](CC(C)C)NC(=O)CNC(=O)[C@@H](NC(=O)[C@H](Cc1ccccc1)NC(=O)[C@H](CCCNC(=N)N)NC(=O)[C@@H](N)CC(=O)O)C(C)C)C(N)=O` [J, Asp-Arg-Phe-Val-Gly-Leu-Nle-NH2] (HELM PEPTIDE1{D.R.F.V.G.L.[Nle].[am]}$$$$V2.0; N-terminus assumed) yielded a solubility in data set [1] of less than 1000 µg/mL. Further, the inhibition constant Ki in data set [2] was determined as 1.74 nM; in data set [3], 126 nM. In addition, the hNK2 selectivity ratio was determined as 72.53 in data set [2] and 9 in data set [4]. For the same compound, the figures for the concentration giving a half-maximal response (EC50) in data set [4] (setting [9]) and in data set [5] (setting [10]) were 0.2 nM and 1.71 nM, respectively.
`CCCC[C@H](NC(=O)[C@H](CC(C)C)NC(=O)CCNC(=O)[C@@H](NC(=O)[C@H](Cc1ccccc1)NC(=O)[C@H](CCCNC(=N)N)NC(=O)[C@@H](N)CC(=O)O)C(C)C)C(N)=O` [K, Asp-Arg-Phe-Val-(β-Ala)-Leu-Nle-NH2] (HELM PEPTIDE1{D.R.F.V.[bAla].L.[Nle].[am]}$$$$V2.0; N-terminus assumed) registered a solubility in data set [1] of less than 1000 µg/mL. For the same compound, the results for the Ki in data set [2] (setting [7]) and in data set [3] (setting [8]) were 6.85 nM and 1200 nM, respectively. The hNK2 selectivity ratio turned out to be 175.59 in data set [2] and 25 in data set [4]. Also, the EC50 stood at 1.16 nM in data set [4] (setting [9]) and 29.5 nM in data set [5] (setting [10]). In data set [6] (iv), this compound had a half-life of 3.3 to 4.7 min.
The compound “DRFVGLM-NH2 [H, Asp-Arg-Phe-Val-Gly-Leu-Met-NH2]” showed a solubility in data set [1] of less than 1000 µg/mL. Besides, the Ki in data set [2] stood at 0.31 nM; in data set [3] it was 8.32 nM. In addition, the hNK2 selectivity ratio in data set [2] is on record as 27.10; in data set [4], 0.8. Also, the EC50 came out at 0.19 nM in data set [4] (setting [9]) and 0.16 nM in data set [5] (setting [10]).
